pKd: −log10 of the molar value.
Tests used:
[1] = biological target: T1, PLCδ-PH (PLCδ PH domain) (Homo sapiens, UniProt P51178); experiment: SPR equilibrium binding of PLCδ-PH to phosphoinositide-containing LUVs; conditions: POPC/POPS/PtdIns(4,5)P2 (77:20:3) LUVs, 20 mM Tris-HCl pH 7.4, 0.16 M KCl, read-out: Kd for PtdIns(4,5)P2
T1 sequence (P51178 21-130 limits assumed): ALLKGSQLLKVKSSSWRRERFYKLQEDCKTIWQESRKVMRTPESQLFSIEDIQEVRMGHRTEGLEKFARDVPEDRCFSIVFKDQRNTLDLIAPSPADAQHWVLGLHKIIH
Procedure: With respect to FIG. […] The proteins were incubated with a given concentration of IP3 for 5 minutes before injecting into the SPR instrument. Kinetic SPR measurements were performed in 20 mM Tris-HCL, pH 7.4, containing 0.16 KCl. […] A lower concentration of DAN-eENTH was used than that of PLCδ PH because the former has much higher affinity that the latter.
LUVs were prepared by extrusion using a 100 nm-pore membrane. GUVs were prepared by electroformation. The lipid mixture were prepared in chloroform/methanol (3:1) at a total concentration of 0.4 mg/ml, then the lipid solution was spread onto the indium-tin oxide electrode surface and the lipid was dried under vacuum to form a uniform lipid film. Vesicles were grown in a sucrose solution (350 mM) while an electric field (3V, 20 Hz frequency) was applied for 5 hour at room temperature. After 1 to […] of sucrose-loaded GUV solution was added into a well glued onto a coverslip that was placed on the microscope stage. The well contained […] of 20 mM Tris-HCl buffer, pH 7.4, with 0.16 M KCl solution. The diameter of GUVs ranged from 5 to 30 μm.

[2] = biological target: T2, epsin 1 ENTH domain, wild type, SEQ ID NO: 1 (Homo sapiens, UniProt Q9Y6I3); experiment: SPR equilibrium binding of epsin1 ENTH domain (wild type) to phosphoinositide-containing LUVs
T2 construct: The Epsin1 ENTH domain (1-158 amino acids) was subcloned; GST (C, cleaved yes); made in house; host or cells: E. coli BL21 RIL codon plus
T2 sequence (Q9Y6I3 1-158): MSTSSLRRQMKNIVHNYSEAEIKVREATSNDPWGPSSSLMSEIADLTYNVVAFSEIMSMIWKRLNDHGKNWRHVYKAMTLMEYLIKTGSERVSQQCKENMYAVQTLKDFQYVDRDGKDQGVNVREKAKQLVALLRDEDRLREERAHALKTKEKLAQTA
Text: The ENTH domain was engineered to introduce a single labeling site (M10C) on the membrane binding surface while removing an endogenous Cys (C96A). We also performed the S4W mutation to suppress its residual affinity for another lipid, phosphatidylinositol-3,4,5-trisphosphate (PtdIns(3,4,5)P3) (PtdIns(4,5)P2/PtdIns(3,4,5)P3=4 for wild type and >10 for the mutant) and to enhance the overall affinity for PtdIns(4,5)P2-containing membranes (ca. 4-fold) (Table 1).
With respect to FIG. 1, an L1 sensor chip was coated with POPC/POPS/PtdIns(4,5)P2 (77:20:3) LUVs. The proteins were incubated with a given concentration of IP3 for 5 minutes before injecting into the SPR instrument. Kinetic SPR measurements were performed in 20 mM Tris-HCL, pH 7.4, containing 0.16 KCl. […] A lower concentration of DAN-eENTH was used than that of PLCδ PH because the former has much higher affinity that the latter.
The Epsin1 ENTH domain (1-158 amino acids) was subcloned into the pGEX4T-1 vector and expressed as a […] glutathione S-transferase (GST)-tagged protein. The ENTH domain amino acid sequence is as follows:
E. coli BL21 RIL codon plus (Stratagene) cells were used for protein expression. Cells were grown in Luria broth media containing 100 μg/ml of ampicillin at 37° C. 0.1 mM of Isopropyl β-D-1-thiogalactopyranoside was added to induce over-expression of recombinant proteins when the OD600 reached 0.5-0.8 and cells were grown for additional 6 to 10 hours at 25° C. Cells were harvested by centrifugation and cell pellets were resuspended in 50 mM Tris-HCl buffer (pH 7.4) containing 160 mM KCl, 1 mM phenylmethanesulphonylfluoride, and 5 mM of dithiothreitol (DTT). Cells were lysed by sonication and the lysate was collected by centrifugation at 4° C. The GST-affinity resin (GenScript) for GST-tagged proteins or nickel-nitrilotriacetic acid resin (Qiagen, Valencia, Calif.) for His6-tagged proteins was added into the cell lysate and the mixture was gently shaken for 30 minutes at 4° C. The mixture was applied to a column and the column was washed once with 50 mM Tris-HCl buffer (pH 7.4) containing 160 mM KCl and 5 mM of DTT to reduce thiol group, and washed several times with the same buffer without DTT to remove DTT. For DAN labeling, 100 μg of acrylodan was added to the column at this stage and incubated 16 hours at 4° C. The excess acrylodan was removed by washing the column with the buffer several times. […] Purity and the concentration of the recombinant proteins were determined by sodium dodecylsulfate-polyacrylamide gel electrophoresis and bicinchoninic acid assay, respectively. The DAN labeling yield of eENTH, which was calculated as the molar ratio of DAN (determined spectrophotometrically at 391 nm using its extinction coefficient of 20,000 cm^−1 M^−1) to protein, was typically 60-70%. […]

pKd [1]: 6.74 | pKd ([2]; SPR, POPC/POPS/PtdIns(4,5)P2 (77:20:3) LUVs, 20 mM Tris-HCl pH 7.4, 0.16 M KCl, read-out: Kd for PtdIns(4,5)P2): 7.30 | PtdIns(4,5)P2/PtdIns(3,4,5)P3 selectivity ([2]; wild type): 4
Structure (SMILES): CCCCCCCCCCCCCCCC(=O)OC[C@H](COP(=O)(O)O[C@@H]1[C@H](O)[C@H](O)[C@@H](OP(=O)(O)O)[C@H](OP(=O)(O)O)[C@H]1O)OC(=O)CCCCCCCCCCCCCCC [PtdIns(4,5)P2, phosphatidylinositol-4,5-bisphosphate]

Reference: patent US8686115B2, “Compositions and methods for quantitatively monitoring lipids” (The Board of Trustees of the University of Illinois, priority 2009, dated 2014)
